For test [1], the target named is Prostaglandin F2-alpha receptor (Sheep). In words: Binding potency towards Prostaglandin F2 alpha receptor (competitive binding) with natural [3H]-PGF 2 alpha in ovine luteal cells (OLC).
Test [2] shares this target. The test is described as above. This is another data set of the same source.

Here are results for 3 compounds from BindingDB's records for doi:10.1021/jm00121a046 (University of Kentucky, 1989).

Structures are written as SMILES. pIC50: −log10 of the molar value.

Consider `[N-]=[N+]=Nc1ccc(CC[C@H](O)/C=C/[C@@H]2[C@@H](C/C=C\CCCC(=O)O)[C@@H](O)C[C@H]2O)c(O)c1`, for which, in test [1], the pIC50 (in general, the negative decadic logarithm of the IC50, by convention in mol/L) is 5.21.

For the compound `[N-]=[N+]=Nc1ccc(CC[C@H](O)/C=C/[C@@H]2[C@@H](C/C=C\CCCC(=O)O)[C@@H](O)C[C@H]2O)cc1I`, the negative logarithm of the IC50 (pIC50) in test [2] is 6.46.

In turn, `[N-]=[N+]=Nc1cc(O)cc(OC[C@H](O)/C=C/[C@@H]2[C@@H](C/C=C\CCCC(=O)O)[C@@H](O)C[C@H]2O)c1` gave a pIC50 in test [1] of 4.96.
